In paper PMC10258794, “To Fold or Not to Fold: Diastereomeric Optimization of an α-Helical Antimicrobial Peptide” (Journal of Medicinal Chemistry, 2023):
In brackets after ≈: the same amount, converted by molar mass. Read-outs that look alike come from different tables or passages of the source.

How the values were obtained:
[1] = system: Burkolderia cenocepacia; experiment: microbe, parasite or virus in culture; conditions: MDR strain; MH broth pH 7.4, 16–20 h, 37 °C
Method: (§1) Antimicrobial activity was determined for all peptides on E. coli W3110, P. aeruginosa PAO1, A. baumannii ATCC19606, K. pneumoniae NCTC418, and methicillin-resistant S. aureus COL and for selected peptides on P. aeruginosa PA14 and the polymyxin B-resistant derivatives PA14 4.13, PA14 4.18, and PA14 2P4 as well as the clinical isolates ZEM-1A and ZEM9A, K. pneumoniae OXA-48, Enterobacter cloacae, Stenotrophomonas maltophilia, B. cenocepacia, and Staphylococus epidermis. To determine the MIC, the broth microdilution method was used.[75] A single bacterial colony was grown in LB medium overnight at 37 °C and 180 rpm shaking. The compounds were prepared as stock solutions of 2 mg/mL in sterilized milliQ deionized water, added to the first well of 96-well sterile, polypropylene round-bottom microtiter plates (TPP, untreated, Corning Incorporated, Kennebunk, USA), and diluted serially by 1/2. […] The bacterial inoculum was prepared by measuring the absorbance of the overnight culture, which was diluted to concentration of the bacteria was quantified by measuring absorbance at 600 nm and diluted to an OD600 of 0.022 in MH medium pH 7.4 (Sigma-Aldrich, Buchs, Switzerland). The sample solutions (150 μL) were mixed with 4 μL of diluted bacterial suspension with a final inoculation of about 5 × 10^5 CFU. For each test, two columns of the plate were kept for sterility control (MH medium only) and growth control (MH medium with bacterial inoculum, no compound). […] The plates were incubated at 37 °C for 16–20 h under static conditions. 15 μL of 3-(4,5-dimethylthiazol-2-yl)-2,5-diphenyltetrazolium bromide (MTT)[76] (1 mg/mL in sterilized milliQ deionized water) was added to each well, and the plates were incubated at room temperature until MTT staining was completed. The MIC was defined as the lowest concentration of the dendrimer that inhibits the visible growth of the tested bacteria (yellow) with the unaided eye.

[2] = system: Enterobacter cloacae; experiment: microbe, parasite or virus in culture; conditions: pH 7.4
Method: as §1

[3] = system: P. aeruginosa PA14; experiment: microbe, parasite or virus in culture; conditions: for MIC PA14: MH broth pH 7.4, 16–20 h, 37 °C; for MIC P. aeruginosa PA14: supplementary CSV
Method: as §1

[4] = system: P. aeruginosa ZEM-1A; experiment: microbe, parasite or virus in culture; conditions: pH 7.4
Method: as §1

[5] = system: PA14 2P4 (pmrB); experiment: microbe, parasite or virus in culture; conditions: supplementary CSV
Method: as §1

[6] = system: PA14 4.13 (phoQ); experiment: microbe, parasite or virus in culture; conditions: supplementary CSV
Method: as §1

[7] = system: PA14 4.18 (pmrB); experiment: microbe, parasite or virus in culture; conditions: supplementary CSV
Method: as §1

[8] = system: P. aeruginosa ZEM9A; experiment: microbe, parasite or virus in culture; assay type: cell-based, Pseudomonas aeruginosa; conditions: pH 7.4
Method: as §1

[9] = system: K. pneumoniae Oxa-48; experiment: MIC broth microdilution, K. pneumoniae Oxa-48; assay type: cell-based, Klebsiella pneumoniae; conditions: MDR strain; MH broth pH 7.4, 16–20 h, 37 °C
Method: as §1

[10] = system: Stenotrophomonas maltophilia; experiment: microbe, parasite or virus in culture; assay type: cell-based; conditions: pH 7.4
Method: as §1

[11] = system: Staphylococcus epidermis; experiment: MIC broth microdilution, Staphylococcus epidermis; assay type: cell-based; conditions: pH 7.4
Method: as §1

[12] = system: A. baumannii ATCC19606
Method: as §1

[13] = system: E. coli W3110
Method: as §1

[14] = system: K. pneumoniae NCTC418
Method: as §1

[15] = system: P. aeruginosa PAO1
Method: as §1

[16] = system: S. aureus COL MRSA; conditions: for MIC S. aureus COL MRSA: MH broth pH 7.4, 16–20 h, 37 °C; for MIC S. aureus COL: supplementary CSV, ranges of Table 1 given as one number
Method: as §1

[17] = system: S. aureus Newman; conditions: for MIC S. aureus Newman: MH broth pH 7.4, 16–20 h, 37 °C; for MIC S. aureus Newmann: supplementary CSV
[18] = system: HEK293 cells; experiment: Alamar blue cytotoxicity, HEK293; assay type: cell-based, human; conditions: 24 h, mean ± SD, n = 3, read-out: Toxicity on HEK293 cells
Method: (§2) The A549 human lung adenocarcinoma cells are derived from a patient and were kindly given to us by Dr. Georgia Konstatinidou (Pharmacology Institute, Bern University). HEK293T cells were obtained from ATCC (CRL-11268). A549 and HEK293 were cultured in an incubator at 37 °C with 5% CO2 in RPMI-1640 (Gibco) and DMEM (Gibco) containing 10% fetal bovine serum (Thermo Fisher), 100 I.U./mL penicillin, and 100 μg/mL streptomycin (Gibco).
(§3) The viability of the cells was assessed with an AlamarBlue assay (ThermoFisher). Cells were seeded into 96-well plates, 4000 cells/well (HEK293) and 8000 cells/well (A549), the day before the experiment. Cells were then treated with the increasing concentration of the compound and incubated for 24 h at 37 °C in the presence of 5% CO2. The next day, the medium was removed and replaced by a 10% AlamarBlue solution in full growth medium (DMEM or RPMI-1640). The cells were incubated for 3–5 h at 37 °C with 5% CO2 in a humidified atmosphere. The fluorescence was then measured on a Tecan Infinite M1000 Pro plate reader at λex 560 nm and λem 590 nm. The value was normalized according to the untreated cells.

[19] = system: A549 cells; experiment: Alamar blue cytotoxicity, A549; assay type: cell-based, human; conditions: 24 h, mean ± SD, n = 3, read-out: Toxicity on A549 lung cancern cells
Method: as §2, §3

[20] = MH broth pH 7.4, 16–20 h, 37 °C
[21] = supplementary CSV, ranges of Table 1 given as one number

Q: Which results are given for `CC(C)C[C@H](NC(=O)[C@H](CC(C)C)NC(=O)[C@H](CC(C)C)NC(=O)[C@H](CCCCN)NC(=O)[C@H](CC(C)C)NC(=O)[C@H](CC(C)C)NC(=O)[C@H](CCCCN)NC(=O)[C@H](CC(C)C)NC(=O)[C@H](CC(C)C)NC(=O)[C@@H](CCCCN)NC(=O)[C@H](N)CCCCN)C(N)=O` [HP2]?
A: MIC Burkolderia cenocepacia [1]: >64 µg/mL; MIC Enterobacter cloacae [2]: 2 µg/mL (≈ 1.51 µM); MIC PA14 [3]: 2 µg/mL (≈ 1.51 µM); MIC P. aeruginosa PA14 [3]: 2 µg/mL (≈ 1.51 µM); MIC ZEM-1A [4]: 2 µg/mL (≈ 1.51 µM); MIC P. aeruginosaPA14 2P4 [5]: 64 µg/mL (≈ 48.4 µM); MIC P. aeruginosa PA14 4.13 [6]: 4 µg/mL (≈ 3.03 µM); MIC P. aeruginosa PA14 4.18 [7]: 32 µg/mL (≈ 24.2 µM); MIC ZEM9A [8]: 4 µg/mL (≈ 3.03 µM); MIC K. pneumoniae Oxa-48 [9]: 2 µg/mL (≈ 1.51 µM); MIC Stenotrophomonas maltophilia [10]: 2 µg/mL (≈ 1.51 µM); MIC Staphylococcus epidermis [11]: 2 µg/mL (≈ 1.51 µM); MIC A. baumannii ATCC19606 [12, 20]: 4 µg/mL (≈ 3.03 µM); MIC A. baumannii ATCC19606 [12, 21]: 4 µg/mL (≈ 3.03 µM); MIC E. coli W3110 [13, 20]: 4 µg/mL (≈ 3.03 µM); MIC K. pneumoniae NCTC418 [14, 20]: 2 to 4 µg/mL; MIC K. pneumoniae NCTC418 [14, 21]: 3 µg/mL (≈ 2.27 µM); MIC P. aeruginosa PAO1 [15, 20]: 4 µg/mL (≈ 3.03 µM); MIC P. aeruginosa PAO1 [15, 21]: 4 µg/mL (≈ 3.03 µM); MIC S. aureus COL MRSA [16]: 4 µg/mL (≈ 3.03 µM); MIC S. aureus COL [16]: 4 µg/mL (≈ 3.03 µM); MIC S. aureus Newman [17]: 2 µg/mL (≈ 1.51 µM); MIC S. aureus Newmann [17]: 2 µg/mL (≈ 1.51 µM)

Q: What does the source list for `CC(C)C[C@H](NC(=O)[C@H](CC(C)C)NC(=O)[C@H](CC(C)C)NC(=O)[C@H](CCCCN)NC(=O)[C@H](CC(C)C)NC(=O)[C@H](CC(C)C)NC(=O)[C@H](CCCCN)NC(=O)[C@@H](CC(C)C)NC(=O)[C@H](CC(C)C)NC(=O)[C@@H](CCCCN)NC(=O)[C@@H](N)CCCCN)C(N)=O` [HP4, KkLlKLLKLLL]?
A: MIC Burkolderia cenocepacia [1]: >64 µg/mL; MIC Enterobacter cloacae [2]: 2 µg/mL (≈ 1.51 µM); MIC PA14 [3]: 2 µg/mL (≈ 1.51 µM); MIC P. aeruginosa PA14 [3]: 2 µg/mL (≈ 1.51 µM); MIC ZEM-1A [4]: 2 µg/mL (≈ 1.51 µM); MIC P. aeruginosaPA14 2P4 [5]: 64 µg/mL (≈ 48.4 µM); MIC P. aeruginosa PA14 4.13 [6]: 4 µg/mL (≈ 3.03 µM); MIC P. aeruginosa PA14 4.18 [7]: 32 µg/mL (≈ 24.2 µM); MIC ZEM9A [8]: 4 µg/mL (≈ 3.03 µM); MIC K. pneumoniae Oxa-48 [9]: 2 µg/mL (≈ 1.51 µM); MIC Stenotrophomonas maltophilia [10]: 2 µg/mL (≈ 1.51 µM); MIC Staphylococcus epidermis [11]: 2 µg/mL (≈ 1.51 µM); IC50 [18]: 43.7 ± 0.8 µM; IC50 [19]: 4.6 ± 4.9 µM; MIC A. baumannii ATCC19606 [12, 20]: 2 to 4 µg/mL; MIC A. baumannii ATCC19606 [12, 21]: 3 µg/mL (≈ 2.27 µM); MIC E. coli W3110 [13, 20]: 2 to 4 µg/mL; MIC E. coli W3110 [13, 21]: 3 µg/mL (≈ 2.27 µM); MIC K. pneumoniae NCTC418 [14, 20]: 2 µg/mL (≈ 1.51 µM); MIC K. pneumoniae NCTC418 [14, 21]: 2 µg/mL (≈ 1.51 µM); MIC P. aeruginosa PAO1 [15, 20]: 2 to 4 µg/mL; MIC P. aeruginosa PAO1 [15, 21]: 3 µg/mL (≈ 2.27 µM); MIC S. aureus COL MRSA [16]: 2 to 4 µg/mL; MIC S. aureus COL [16]: 3 µg/mL (≈ 2.27 µM); MIC S. aureus Newman [17]: 2 µg/mL (≈ 1.51 µM); MIC S. aureus Newmann [17]: 2 µg/mL (≈ 1.51 µM)
